{
  "source": "the supplement of paper PMC11061612",
  "key": {"[1]": {"tested_on": "U-698-M", "experiment": "combination Emax (second highest fraction inhibited in the dose matrix, 72 h); higher = more inhibition", "conditions": "B-Cell Non-Hodgkin's Lymphoma", "in_short": "(§1)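 After 24 hours at 37°C and 5% CO2 in 1536-well plates, cells in DMEM/F12 or RPMI plus 10% FBS received two-drug dose matrices for 72 hours. Viability came from CellTiter-Glo 2.0 luminescence and was scaled as inhibition, anchored at 0 by vehicle wells and at 1 by blank wells. Combination Emax is taken as the second-highest inhibition in the matrix, and Bliss excess as the observed combination effect less EA + EB − EA·EB, with EA and EB the single-agent effects.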"}, "[2]": {"tested_on": "U-698-M", "experiment": "Bliss excess, mean over the matrix (fraction); higher = more synergy", "conditions": "U-[…], B-Cell Non-Hodgkin's Lymphoma", "in_short": "as §1"}, "[3]": {"conditions": "first compound max 10 µM, partner max 20 µM, 7x7"}, "[4]": {"conditions": "first compound max 1 µM, partner max 1 µM, 7x7"}, "[5]": {"conditions": "first compound max 10 µM, partner max 1 µM"}, "[6]": {"conditions": "first compound max 10 µM, partner max 0.3 µM, 7x7"}, "[7]": {"conditions": "first compound max 10 µM, partner max 1 µM, 7x7"}, "[8]": {"conditions": "first compound max 10 µM, partner max 10 µM, 7x7"}, "[9]": {"conditions": "first compound max 10 µM, partner max 5 µM, 7x7"}, "[10]": {"conditions": "first compound max 1 µM, partner max 10 µM, 7x7"}, "[11]": {"conditions": "first compound max 1 µM, partner max 3 µM, 7x7"}, "[12]": {"conditions": "first compound max 1 µM, partner max 1 µM"}},
  "data": [
    {"smiles": "N#Cc1cnc(Nc2cc(NC[C@H]3CNCCO3)c(C(F)(F)F)cn2)cn1", "note": "[SRA737] + O=c1[nH]cc(F)c(=O)[nH]1 [5-Fluorouracil]", "values": [
      {"measurement": "combination Emax", "setting": "[1]; [3]", "result": 0.798},
      {"measurement": "Bliss excess", "setting": "[2]; [3]", "result": -0.0673}
    ]},
    {"smiles": "C[C@@H](c1ccc2nccn2c1)n1nnc2ncc(-c3cnn(C)c3)nc21", "note": "[Savolitinib] + CC1(C)CCC(CN2CCN(c3ccc(C(=O)NS(=O)(=O)c4ccc(NCC5CCOCC5)c([N+](=O)[O-])c4)c(Oc4cnc5[nH]ccc5c4)c3)CC2)=C(c2ccc(Cl)cc2)C1 [Venetoclax]", "values": [
      {"measurement": "combination Emax", "setting": "[1]; [4]", "result": 0.191},
      {"measurement": "Bliss excess", "setting": "[2]; [4]", "result": -0.0313}
    ]},
    {"smiles": "C[C@@H](c1ccc2nccn2c1)n1nnc2ncc(-c3cnn(C)c3)nc21", "note": "[Savolitinib] + Cc1c2c(nn1C)CSCc1cc(n(C)n1)CSc1cc(c3ccccc3c1)OCCCc1c(C(=O)O)n(C)c3c-2c(Cl)ccc13 [AZD5991]", "values": [
      {"measurement": "combination Emax", "setting": "[1]; [4]", "result": 0.978},
      {"measurement": "Bliss excess", "setting": "[2]; [4]", "result": -0.0477}
    ]},
    {"smiles": "Cn1cnc2c(F)c(Nc3ccc(Br)cc3Cl)c(C(=O)NOCCO)cc21", "note": "[Selumetinib] + C=CCn1c(=O)c2cnc(Nc3ccc(N4CCN(C)CC4)cc3)nc2n1-c1cccc(C(C)(C)O)n1 [AZD1775]", "values": [
      {"measurement": "combination Emax", "setting": "[1]; [5]", "result": 0.892},
      {"measurement": "Bliss excess", "setting": "[2]; [5]", "result": -0.0472}
    ]},
    {"smiles": "Cn1cnc2c(F)c(Nc3ccc(Br)cc3Cl)c(C(=O)NOCCO)cc21", "note": "[Selumetinib] + CC(C)n1c(=O)n(C)c2cnc3cc(F)c(-c4ccc(OCCCN5CCCCC5)nc4)cc3c21 [AZD1390]", "values": [
      {"measurement": "combination Emax", "setting": "[1]; [6]", "result": 0.109},
      {"measurement": "Bliss excess", "setting": "[2]; [6]", "result": -0.0149}
    ]},
    {"smiles": "Cn1cnc2c(F)c(Nc3ccc(Br)cc3Cl)c(C(=O)NOCCO)cc21", "note": "[Selumetinib] + CCN(CCO)CCCOc1ccc2c(Nc3cc(CC(=O)Nc4cccc(F)c4)[nH]n3)ncnc2c1 [AZD2811]", "values": [
      {"measurement": "combination Emax", "setting": "[1]; [7]", "result": 0.253},
      {"measurement": "Bliss excess", "setting": "[2]; [7]", "result": 0.0099}
    ]},
    {"smiles": "Cn1cnc2c(F)c(Nc3ccc(Br)cc3Cl)c(C(=O)NOCCO)cc21", "note": "[Selumetinib] + C[C@@H]1COCCN1C2=NC(=NC(=C2)C3(CC3)[S@](=N)(=O)C)C4=C5C=CNC5=NC=C4 [AZD6738]", "values": [
      {"measurement": "combination Emax", "setting": "[1]; [8]", "result": 0.766},
      {"measurement": "Bliss excess", "setting": "[2]; [8]", "result": -0.0501}
    ]},
    {"smiles": "Cc1nc(-c2cn3c(n2)-c2ccc(-c4cnn(C(C)(C)C(N)=O)c4)cc2OCC3)n(C(C)C)n1", "note": "[Taselisib] + O=C(Nc1ccc2[nH]nc(-c3ccncc3)c2c1)[C@@H]1CCN(CC(=O)N2CCN(c3ccc(-c4ncccn4)cc3)CC2)C1 [SCH772984]", "values": [
      {"measurement": "combination Emax", "setting": "[1]; [9]", "result": 0.606},
      {"measurement": "Bliss excess", "setting": "[2]; [9]", "result": -0.0189}
    ]},
    {"smiles": "CC(=O)Nc1cccc(-n2c(=O)n(C3CC3)c(=O)c3c(Nc4ccc(I)cc4F)n(C)c(=O)c(C)c32)c1", "note": "[Trametinib] + Cc1nc(-c2cn3c(n2)-c2ccc(-c4cnn(C(C)(C)C(N)=O)c4)cc2OCC3)n(C(C)C)n1 [Taselisib]", "values": [
      {"measurement": "combination Emax", "setting": "[1]; [10]", "result": 0.416},
      {"measurement": "Bliss excess", "setting": "[2]; [10]", "result": -0.0211}
    ]},
    {"smiles": "CC1(C)CCC(CN2CCN(c3ccc(C(=O)NS(=O)(=O)c4ccc(NCC5CCOCC5)c([N+](=O)[O-])c4)c(Oc4cnc5[nH]ccc5c4)c3)CC2)=C(c2ccc(Cl)cc2)C1", "note": "[Venetoclax] + C1CN(CCC1(C(=O)N[C@@H](CCO)C2=CC=C(C=C2)Cl)N)C3=NC=NC4=C3C=CN4 [Capivasertib]", "values": [
      {"measurement": "combination Emax", "setting": "[1]; [11]", "result": 0.756},
      {"measurement": "Bliss excess", "setting": "[2]; [11]", "result": -0.0112}
    ]},
    {"smiles": "CC1(C)CCC(CN2CCN(c3ccc(C(=O)NS(=O)(=O)c4ccc(NCC5CCOCC5)c([N+](=O)[O-])c4)c(Oc4cnc5[nH]ccc5c4)c3)CC2)=C(c2ccc(Cl)cc2)C1", "note": "[Venetoclax] + C=CCn1c(=O)c2cnc(Nc3ccc(N4CCN(C)CC4)cc3)nc2n1-c1cccc(C(C)(C)O)n1 [AZD1775]", "values": [
      {"measurement": "combination Emax", "setting": "[1]; [12]", "result": 0.978},
      {"measurement": "Bliss excess", "setting": "[2]; [12]", "result": 0.109}
    ]},
    {"smiles": "CC1(C)CCC(CN2CCN(c3ccc(C(=O)NS(=O)(=O)c4ccc(NCC5CCOCC5)c([N+](=O)[O-])c4)c(Oc4cnc5[nH]ccc5c4)c3)CC2)=C(c2ccc(Cl)cc2)C1", "note": "[Venetoclax] + CCN(CCO)CCCOc1ccc2c(Nc3cc(CC(=O)Nc4cccc(F)c4)[nH]n3)ncnc2c1 [AZD2811]", "values": [
      {"measurement": "combination Emax", "setting": "[1]; [4]", "result": 0.6},
      {"measurement": "Bliss excess", "setting": "[2]; [4]", "result": -0.0213}
    ]},
    {"smiles": "CC1(C)CCC(CN2CCN(c3ccc(C(=O)NS(=O)(=O)c4ccc(NCC5CCOCC5)c([N+](=O)[O-])c4)c(Oc4cnc5[nH]ccc5c4)c3)CC2)=C(c2ccc(Cl)cc2)C1", "note": "[Venetoclax] + CN(C)CCCOc1ccc(-c2ccc3ncc4c(c3c2)n(C2CCOCC2)c(=O)n4C)cn1 [AZD0156]", "values": [
      {"measurement": "combination Emax", "setting": "[1]; [4]", "result": 0.72},
      {"measurement": "Bliss excess", "setting": "[2]; [4]", "result": 0.0133}
    ]},
    {"smiles": "CC1(C)CCC(CN2CCN(c3ccc(C(=O)NS(=O)(=O)c4ccc(NCC5CCOCC5)c([N+](=O)[O-])c4)c(Oc4cnc5[nH]ccc5c4)c3)CC2)=C(c2ccc(Cl)cc2)C1", "note": "[Venetoclax] + COc1cc(Nc2ncc3c(n2)-c2ccc(Cl)cc2C(c2c(F)cccc2OC)=NC3)ccc1C(=O)O [Alisertib]", "values": [
      {"measurement": "combination Emax", "setting": "[1]; [10]", "result": 0.592},
      {"measurement": "Bliss excess", "setting": "[2]; [10]", "result": 0.0827}
    ]},
    {"smiles": "CC1(C)CCC(CN2CCN(c3ccc(C(=O)NS(=O)(=O)c4ccc(NCC5CCOCC5)c([N+](=O)[O-])c4)c(Oc4cnc5[nH]ccc5c4)c3)CC2)=C(c2ccc(Cl)cc2)C1", "note": "[Venetoclax] + CS(=O)(=O)CCNCc1ccc(-c2ccc3ncnc(Nc4ccc(OCc5cccc(F)c5)c(Cl)c4)c3c2)o1 [Lapatinib]", "values": [
      {"measurement": "combination Emax", "setting": "[1]; [10]", "result": 0.503},
      {"measurement": "Bliss excess", "setting": "[2]; [10]", "result": -0.0151}
    ]},
    {"smiles": "CC1(C)CCC(CN2CCN(c3ccc(C(=O)NS(=O)(=O)c4ccc(NCC5CCOCC5)c([N+](=O)[O-])c4)c(Oc4cnc5[nH]ccc5c4)c3)CC2)=C(c2ccc(Cl)cc2)C1", "note": "[Venetoclax] + C[C@@H]1COCCN1C2=NC(=NC(=C2)C3(CC3)[S@](=N)(=O)C)C4=C5C=CNC5=NC=C4 [AZD6738]", "values": [
      {"measurement": "combination Emax", "setting": "[1]; [10]", "result": 0.86},
      {"measurement": "Bliss excess", "setting": "[2]; [10]", "result": -0.0392}
    ]},
    {"smiles": "CC1(C)CCC(CN2CCN(c3ccc(C(=O)NS(=O)(=O)c4ccc(NCC5CCOCC5)c([N+](=O)[O-])c4)c(Oc4cnc5[nH]ccc5c4)c3)CC2)=C(c2ccc(Cl)cc2)C1", "note": "[Venetoclax] + C[C@@H](Nc1cc(F)cc(F)c1)c1cc(C(=O)N(C)C)cc2c(=O)cc(N3CCOCC3)oc12 [AZD8186]", "values": [
      {"measurement": "combination Emax", "setting": "[1]; [11]", "result": 0.564},
      {"measurement": "Bliss excess", "setting": "[2]; [11]", "result": -0.0045}
    ]},
    {"smiles": "CC1(C)CCC(CN2CCN(c3ccc(C(=O)NS(=O)(=O)c4ccc(NCC5CCOCC5)c([N+](=O)[O-])c4)c(Oc4cnc5[nH]ccc5c4)c3)CC2)=C(c2ccc(Cl)cc2)C1", "note": "[Venetoclax] + Cc1cc2ncnn2cc1Nc1ncc2c(n1)n(C1CCOCC1)c(=O)n2C [AZD7648]", "values": [
      {"measurement": "combination Emax", "setting": "[1]; [10]", "result": 0.57},
      {"measurement": "Bliss excess", "setting": "[2]; [10]", "result": 0.041}
    ]},
    {"smiles": "CC1(C)CCC(CN2CCN(c3ccc(C(=O)NS(=O)(=O)c4ccc(NCC5CCOCC5)c([N+](=O)[O-])c4)c(Oc4cnc5[nH]ccc5c4)c3)CC2)=C(c2ccc(Cl)cc2)C1", "note": "[Venetoclax] + Cn1cnc2c(F)c(Nc3ccc(Br)cc3Cl)c(C(=O)NOCCO)cc21 [Selumetinib]", "values": [
      {"measurement": "combination Emax", "setting": "[1]; [11]", "result": 0.408},
      {"measurement": "Bliss excess", "setting": "[2]; [11]", "result": -0.0473}
    ]}
  ]
}
